According to article PMC5522078, “Discovery and characterization of small molecules targeting the DNA-binding ETS domain of ERG in prostate cancer” (Oncotarget, 2017):

Legend:
[1] = system: SOX9; test: SOX9 gene expression in VCaP cells; type: cell-based, human; details: 25 μM, with and without 1 nM R1881
Procedure: Total RNA was extracted from VCaP cells with the use of RNeasy Plus kit (Qiagen). Reverse transcription was performed with the use of the iScript First-Strand cDNA Synthesis Kit (Bio-Rad Laboratories) with 100 ng total RNA used as template. Real time reverse-transcription (RT) polymerase chain reaction (PCR) primers for ERG synthesized by IDT (forward, 5′- CGCAGATTATCGT GCCAGCAGAT -3′; reverse, 5′- CCATATTCTTTCACC GCCCACTCC-3′) and SOX9 (Quantitect primer assay, Qiagen). Real-time quantitative RT-PCR was performed in triplicate for each sample with the use of the ABI ViiA7 QPCR thermocycler. In each reaction, 1 μl cDNA, 1 μl forward and reverse primers (or 1 μl of Quantitect primers), and 6 μl Sybr Green Master Mix (Applied Biosystems) were added with water to make a final volume of 12 μl. All primers were used at a concentration of 5 μmol/l. PCR cycling conditions were 95°C for 10 minutes followed by 40 cycles of 95°C for 15 seconds, 60°C for 1 min. Data was normalized to reference genes: GAPDH (forward, 5′- […] -3′; reverse, 5′- […] -3′) The 2^−ΔΔCT method was used to compare samples. PCR product specificity was validated with the use of a melt curve.

[2] = biological target: T1, ETS domain of ETV4 (Homo sapiens, UniProt P43268); test: Preliminary NMR spectroscopic experiments, ETV4; type: binding
T1 sequence (P43268 341-421 limits assumed): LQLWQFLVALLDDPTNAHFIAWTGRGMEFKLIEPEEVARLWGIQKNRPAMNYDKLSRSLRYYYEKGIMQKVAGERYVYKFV

[3] = system: PNT1B-MOCK cells; test: pETS-luc luciferase assay in PNT1B-MOCK cells (non-specific effect); type: cell-based, human; details: increasing concentrations, 48 h; compared to PNT1B-ERG cells
Procedure: (§1) All of the compounds selected from the virtual screening were tested in a luciferase-based ERG-responsive reporter assay, using two ERG-overexpressing cell lines, VCaP and PNT1B-ERG, previously developed in house. […] Data were normalized first to Renilla luciferase and then to the DMSO-media control on each plate, unless otherwise stated. Initial hit compounds were identified as those with an average normalized luciferase reading (firefly luciferase/Renilla luciferase readings) that is 60% or less of the average normalized luciferase reading of the DMSO-media control (i.e. 40% or more reduction of luciferase activity) at 10 μM. Representative example of raw Renilla luciferase readings presented in Supplementary Figure 9B. […]
(§2) Supplementary Figure 3: VPC-18005 selectively suppresses ERG-mediated transcriptional activity. […] Data are presented as the mean ± SEM of 4 technical replicates and expressed as luciferase:renilla ratio (activity).
(§3) (B) Luciferase assay was performed on VCaP cells transfected with ETS responsive luciferase reporter and treated with DMSO (0) or 0.1, 1, or 10 nM R1881 in the presence of 25 μM of VPC-18005. Data are presented as the mean ± SEM of 4 technical replicates and expressed as the luciferase:renilla ratio relative to VPC-18005 alone. […]

[4] = biological target: T2, androgen receptor (Homo sapiens, UniProt P10275); test: Androgen receptor luciferase reporter (ARR3tk-luc) assay; type: cell-based; details: PC3 cells transfected with AR; 1 nM R1881; 1, 5 or 10 μM
T2 construct: expressed in transfected cells; host or cells: PC3
T2 sequence (P10275 1-920): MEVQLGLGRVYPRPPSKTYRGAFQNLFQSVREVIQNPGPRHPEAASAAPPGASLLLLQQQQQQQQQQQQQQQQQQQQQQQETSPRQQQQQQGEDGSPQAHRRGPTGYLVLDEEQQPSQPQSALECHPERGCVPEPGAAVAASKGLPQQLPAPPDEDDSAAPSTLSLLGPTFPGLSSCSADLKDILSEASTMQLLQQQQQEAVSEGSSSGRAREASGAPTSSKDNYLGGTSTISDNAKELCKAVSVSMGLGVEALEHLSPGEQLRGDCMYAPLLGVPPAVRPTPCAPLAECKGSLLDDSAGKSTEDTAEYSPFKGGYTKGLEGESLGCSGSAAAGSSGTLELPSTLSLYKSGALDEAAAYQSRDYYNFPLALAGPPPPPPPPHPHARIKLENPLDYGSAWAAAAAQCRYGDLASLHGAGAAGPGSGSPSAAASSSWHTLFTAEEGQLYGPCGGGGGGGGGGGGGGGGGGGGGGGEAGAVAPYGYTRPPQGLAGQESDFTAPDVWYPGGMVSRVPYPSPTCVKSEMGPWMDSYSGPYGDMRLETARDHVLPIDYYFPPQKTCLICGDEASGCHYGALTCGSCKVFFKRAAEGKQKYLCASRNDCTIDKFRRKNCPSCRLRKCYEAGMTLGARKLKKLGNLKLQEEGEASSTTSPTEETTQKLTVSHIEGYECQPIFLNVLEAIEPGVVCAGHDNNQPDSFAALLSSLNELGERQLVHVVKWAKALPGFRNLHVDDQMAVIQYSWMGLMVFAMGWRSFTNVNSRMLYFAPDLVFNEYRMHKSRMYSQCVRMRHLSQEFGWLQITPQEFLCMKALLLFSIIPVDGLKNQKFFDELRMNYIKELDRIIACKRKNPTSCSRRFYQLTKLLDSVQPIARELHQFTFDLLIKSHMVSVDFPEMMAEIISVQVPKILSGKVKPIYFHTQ
Procedure: as §1, §2, §3

[5] = biological target: ETS domain of PU.1 (Homo sapiens, UniProt P17947); test: Preliminary NMR spectroscopic experiments, PU.1; type: binding
[6] = system: VCaP cells; parameters: method as in PMID 21559405; details: read-out: IC50 for cytotoxicity in VCaP cells; cited from earlier work

| SMILES | Basal and R1881-stimulated SOX9 mRNA and protein expression [1] | Interaction with the ETS domain of ETV4 [2] | Impact on the reporter signal in PNT1B-MOCK [3] | Effect on androgen receptor luciferase reporter (ARR3tk-luc) expression [4] | Interaction with the ETS domain of PU.1 [5] | IC50 [6] [µM] |
| --- | --- | --- | --- | --- | --- | --- |
| CC(C)c1ccc(C=N/N=C2\NC(=O)[C@@H](CC(=O)O)S2)cc1 (stereo in doubt) [VPC-18005, 2-((Z)-2-(((Z)-4-isopropylbenzylidene)hydrazono)-4-oxothiazolidin-5-yl)acetic acid] | markedly decreased | interacts | minimal impact | no significant effect | interacts | – |
| COc1ccc(C(=O)CC2(O)C(=O)Nc3c(Cl)ccc(Cl)c32)cc1 (stereo not drawn) [YK-4-279, reference compound] | – | – | – | – | – | 10 |
